Data: patent publication US7700522B2, “α-Oxygenated or α-thiolated carboxylic acid phenethylamide derivatives” (Syngenta Crop Protection, Inc., priority 2001, dated 2010)

Assays:
Format in all cases: in vivo
Plasmopara viticola [1] = assay: D-1b residual-curative action against Plasmopara viticola on vines; conditions: test D-1b, vine seedlings, sprayed 24 hours after infection, untreated plants attack 80-100%, read-out: inhibit fungal infestations
Procedure: (§1) D-1: Action Against Plasmopara Viticola on Vines
b) Residual-curative Action
Vine seedlings are infected at the 4- to 5-leaf stage with a sporangia suspension of the fungus. After incubation for 24 hours in a humidity chamber at 95-100% relative humidity and +20° C., the infected plants are dried and sprayed with a spray mixture (0.02% active ingredient) prepared from a wettable powder formulation of the test compound. After the spray coating has dried, the treated plants are placed in the humidity chamber again. Fungus infestation is evaluated 6 days after infection.

Plasmopara viticola [2] = assay: D-1a residual-protective action against Plasmopara viticola on vines; conditions: test D-1a, vine seedlings, sprayed 24 hours before infection, untreated plants attack 80-100%, read-out: inhibit fungal infestations
Procedure: as §1
(§2) a) Residual-protective Action
Vine seedlings are sprayed at the 4- to 5-leaf stage with a spray mixture (0.02% active ingredient) prepared from a wettable powder formulation of the test compound. After 24 hours, the treated plants are infected with a sporangia suspension of the fungus. Fungus infestation is evaluated after incubation for 6 days at 95-100% relative humidity and +20° C.

Phytophthora [3] = assay: D-3a residual-protective action against Phytophthora on potato plants; conditions: test D-3a, potato plants (Bintje), sprayed 48 hours before infection, untreated plants attack 80 to 100%, read-out: inhibit fungal infestations
Procedure: (§3) D-3: Action Against Phytophthora on Potato Plants
as §2
(§4) 2-3 week old potato plants (Bintje variety) are sprayed with a spray mixture (0.02% active ingredient) prepared from a wettable powder formulation of the test compound. After 48 hours, the treated plants are infected with a sporangia suspension of the fungus. Fungus infestation is evaluated after incubation of the infected plants for 4 days at 90-100% relative humidity and +20° C.

Phytophthora [4] = assay: D-2b systemic action against Phytophthora on tomato plants; conditions: test D-2b, soil watering 96 hours before infection, untreated plants attack 80-100%, read-out: inhibit fungal infestations
Procedure: (§5) D-2: Action Against Phytophthora on Tomato Plants
After a cultivation period of 3 weeks, tomato plants are watered with a spray mixture (0.02% active ingredient based on the volume of the soil) prepared from a wettable powder formulation of the test compound. […] After 96 hours, the treated plants are infected with a sporangia suspension of the fungus. Fungus infestation is evaluated after incubation of the infected plants for 4 days at 90-100% relative humidity and +20° C.

Phytophthora [5] = assay: D-2a residual-protective action against Phytophthora on tomato plants; conditions: test D-2a, sprayed 48 hours before infection, untreated plants attack 80-100%, read-out: inhibit fungal infestations
Procedure: as §5, §2
After a cultivation period of 3 weeks, tomato plants are sprayed with a spray mixture (0.02% active ingredient) prepared from a wettable powder formulation of the test compound. After 48 hours, the treated plants are infected with a sporangia suspension of the fungus. Fungus infestation is evaluated after incubation of the infected plants for 5 days at 90-100% relative humidity and +20° C.

Phytophthora [6] = assay: D-3b systemic action against Phytophthora on potato plants; conditions: test D-3b, potato plants (Bintje), soil watering 48 hours before infection, untreated plants attack 80 to 100%, read-out: inhibit fungal infestations
Procedure: as §3
as §4, with “watered” for “sprayed”, “ingredient based on the volume of the soil)” for “ingredient)”, “compound. […]” for “compound.”

Measured: inhibition at 200 ppm

C#CCOc1ccc(CCNC(=O)C(Cc2ccccc2)OCC#C)cc1OC (stereo not shown) [Compound E1.03, N-[2-(3-methoxy-4-prop-2-ynyloxy-phenyl)-ethyl]-3-phenyl-2-prop-2-ynyloxy-propionamide]
80 to 100%: all assays above

C#CCOc1ccc(CCNC(=O)C(Cc2ccc(F)cc2)OCC#C)cc1OC (stereo not shown) [Compound E1.06, 3-(4-fluoro-phenyl)-N-[2-(3-methoxy-4-prop-2-ynyloxy-phenyl)-ethyl]-2-prop-2-ynyloxy-propionamide]
80 to 100%: Phytophthora [3] | Phytophthora [4] | Phytophthora [5] | Phytophthora [6]

C#CCOc1ccc(CCNC(=O)C(Cc2ccc(Cl)cc2)OCC#C)cc1OC (stereo not shown) [Compound E1.10, 3-(4-chloro-phenyl)-N-[2-(3-methoxy-4-prop-2-ynyloxy-phenyl)-ethyl]-2-prop-2-ynyloxy-propionamide]
80 to 100%: all assays above

C#CCOc1ccc(CCNC(=O)C(Cc2ccc(Br)cc2)OCC#C)cc1OC (stereo not shown) [Compound E1.15, 3-(4-bromo-phenyl)-N-[2-(3-methoxy-4-prop-2-ynyloxy-phenyl)-ethyl]-2-prop-2-ynyloxy-propionamide]
80 to 100%: all assays above

C#CCOc1ccc(CCNC(=O)C(Cc2ccc(C)cc2)OCC#C)cc1OC (stereo not shown) [Compound E1.18, N-[2-(3-methoxy-4-prop-2-ynyloxy-phenyl)-ethyl]-2-prop-2-ynyloxy-3-p-tolyl-propionamide]
80 to 100%: Plasmopara viticola [1] | Plasmopara viticola [2]

C#CCOc1ccc(CCNC(=O)C(Cc2ccc(CC)cc2)OCC#C)cc1OC (stereo not shown) [Compound E1.22, 3-(4-ethyl-phenyl)-N-[2-(3-methoxy-4-prop-2-ynyloxy-phenyl)-ethyl]-2-prop-2-ynyloxy-propionamide]
80 to 100%: Plasmopara viticola [1] | Plasmopara viticola [2] | Phytophthora [4] | Phytophthora [5]
